The source of these data is ChEMBL document CHEMBL4177721, “Synthesis, antitumor activity, and cytotoxicity of 4-substituted 1-benzyl-5-diphenylstibano-1H-1,2,3-triazoles” (Bioorg Med Chem Lett, 2018).

Data set [1] in a line: Cytotoxicity against bovine aorta vascular endothelial cells assessed as reduction in cell viability incubated for 24 hrs by MTT assay. Format: cell-based, Bos taurus. The conditions noted are these: cattle.
Data set [2] has as its system NUGC-3. As to the kind of experiment: Antitumor activity against human NUGC3 cells incubated for 72 hrs by MTT assay. Format: functional, cell-based. As to conditions: NUGC-3, 72 h. For orientation: Formazan colour is commonly taken as a measure of viable cells.
Data set [3] concerns P388. As to the kind of experiment: Antitumor activity against mouse P388 cells incubated for 72 hrs by MTT assay. As to conditions: P388, 72 h. It is filed as functional, cell-based.
In data set [4] the test system is HT-1080. The data set is described as follows: Antitumor activity against human HT1080 cells incubated for 72 hrs by MTT assay. Format: functional, cell-based. As to conditions: HT-1080, 72 h.
Data set [5] has as its system KB. The data set is described as follows: Antitumor activity against human KB cells incubated for 72 hrs by MTT assay. It is filed as functional, cell-based.
The subject of data set [6] is B16-F10. As to the kind of experiment: Antitumor activity against mouse B16F10 cells incubated for 72 hrs by MTT assay. It is filed as functional, cell-based. The conditions noted are these: B16-F10, 72 h.
The subject of data set [7] is DLD-1. The data set is described as follows: Antitumor activity against human DLD1 cells incubated for 72 hrs by MTT assay. The conditions noted are these: DLD-1, 72 h. It is filed as functional, cell-based.
The subject of data set [8] is HL-60. As to the kind of experiment: Antitumor activity against human HL60 cells incubated for 72 hrs by MTT assay. It is filed as functional, cell-based. As to conditions: HL-60, 72 h.
Data set [9] concerns MCF7. The data set is described as follows: Antitumor activity against human MCF7 cells incubated for 72 hrs by MTT assay. Format: functional, cell-based. As to conditions: MCF7, 72 h.
Data set [10] deals with B16-F10. As to the kind of experiment: Antitumor activity against mouse B16F10 cells at 0.5 uM incubated for 72 hrs by MTT assay. Format: functional, cell-based.
Data set [11] concerns NUGC-3. The data set is described as follows: Antitumor activity against human NUGC3 cells at 0.5 uM incubated for 72 hrs by MTT assay. Format: functional, cell-based.
Data set [12] has as its system HT-1080. As to the kind of experiment: Antitumor activity against human HT1080 cells at 0.5 uM incubated for 72 hrs by MTT assay. Format: functional, cell-based.
In data set [13] the test system is KB. As to the kind of experiment: Antitumor activity against human KB cells at 0.5 uM incubated for 72 hrs by MTT assay. Format: functional, cell-based.
Data set [14] relates to DLD-1. As to the kind of experiment: Antitumor activity against human DLD1 cells at 0.5 uM incubated for 72 hrs by MTT assay. It is filed as functional, cell-based.
The test system of data set [15] is P388. As to the kind of experiment: Antitumor activity against mouse P388 cells at 0.5 uM incubated for 72 hrs by MTT assay. It is filed as functional, cell-based.
Data set [16] concerns HL-60. As to the kind of experiment: Antitumor activity against human HL60 cells at 0.5 uM incubated for 72 hrs by MTT assay. It is filed as functional, cell-based.
The test system of data set [17] is MCF7. The data set is described as follows: Antitumor activity against human MCF7 cells at 0.5 uM incubated for 72 hrs by MTT assay. It is filed as functional, cell-based.

Calls of active or inactive are those of the source. No cut-off for these calls is given here.

For orientation: CC50 means the concentration that lowers cell viability or growth by half. A word on the IC50: it is the concentration that gives 50% inhibition. Low readings indicate greater potency, high ones weaker potency. In the case of `CCCCc1cn(Cc2ccccc2)nn1`, the CC50 at 24 h in data set [1] is more than 100 µM. In addition, the IC50 with NUGC-3 [2] is more than 100 µM; in the data set on P388 [3] it was 217 µM; with HT-1080 [4], more than 100 µM; with KB [5], more than 100 µM; in the data set on B16-F10 [6] it was 421 µM; in the data set on DLD-1 [7] it was more than 100 µM. Moreover, the IC50 with HL-60 [8] and in the data set with MCF7 [9] was more than 100 µM in each case.

Regarding `COc1ccc(-c2cn(Cc3ccccc3)nn2)cc1`, the CC50 at 24 h in data set [1] was more than 100 µM. For the same compound, the IC50 in the data set on NUGC-3 [2] came out at 158 µM; in the data set with P388 [3] it was 83.8 µM; in the data set with HT-1080 [4] it was 146 µM; with KB [5], 86.6 µM; in the data set on B16-F10 [6], 88.5 µM; in the data set with DLD-1 [7], 139 µM. Further, the IC50 was more than 100 µM in the data set on HL-60 [8] and 231 µM in the data set with MCF7 [9].

With `Cc1ccc(-c2cn(Cc3ccccc3)nn2)cc1`, in data set [1], the CC50 at 24 h is more than 100 µM. Moreover, the IC50 in the data set with NUGC-3 [2] was found to be 129 µM; in the data set with P388 [3], 94.1 µM; in the data set on HT-1080 [4], 84.4 µM; in the data set on KB [5] it was 79.5 µM; in the data set on B16-F10 [6], 66.4 µM; in the data set on DLD-1 [7], 102 µM. For the same compound, the IC50 in the data set on HL-60 [8] is more than 100 µM; with MCF7 [9], 253 µM.

On to `C1=C(c2cn(Cc3ccccc3)nn2)CCCC1`, for which the CC50 at 24 h in [1] is more than 100 µM. The IC50 in the data set on NUGC-3 [2] was more than 100 µM; with P388 [3], 49.6 µM; with HT-1080 [4], 219 µM; in the data set with KB [5], more than 100 µM; in the data set with B16-F10 [6], 45.5 µM; in the data set on DLD-1 [7], more than 100 µM. In addition, the IC50 with HL-60 [8] was 171 µM; in the data set with MCF7 [9] it was more than 100 µM.

On to “1-Benzyl-4-(p-tolyl)-5-(diphenylstibano)-1H-1,2,3-triazole”, for which the result in the data set with B16-F10 [10], with NUGC-3 [11], with HT-1080 [12], with KB [13], in the data set with DLD-1 [14] and with P388 [15] was Active. Moreover, the outcome with HL-60 [16] and with MCF7 [17] was Active.

For `c1ccc(Cn2cc(-c3ccccc3)nn2)cc1`, the CC50 at 24 h in data set [1] is more than 100 µM. For the same compound, the IC50 was 836 µM with NUGC-3 [2]; 99.1 µM in the data set on P388 [3]; 651 µM with HT-1080 [4]; more than 100 µM in the data set with KB [5]; 96.1 µM with B16-F10 [6]; more than 100 µM in the data set with DLD-1 [7]. Also, the IC50 was more than 100 µM with HL-60 [8] and 490 µM in the data set on MCF7 [9].

Regarding `FC(F)(F)c1ccc(-c2cn(Cc3ccccc3)nn2)cc1`, the CC50 at 24 h in data set [1] is more than 100 µM. Besides, the IC50 was found to be 81 µM in the data set on NUGC-3 [2]; 17.5 µM in the data set with P388 [3]; 57.7 µM in the data set with HT-1080 [4]; 60.2 µM in the data set with KB [5]; 35.4 µM with B16-F10 [6]; 74.3 µM in the data set with DLD-1 [7]. Also, the IC50 in the data set with HL-60 [8] worked out at 171 µM; with MCF7 [9], 162 µM.
